Data published in PubChem BioAssay AID1259407 (Chemical Carcinogenesis Research Information System (CCRIS), 2018).
Calls of active or inactive are those of the source. No rule for the calls is given here.

Test system: CCRIS mutagenicity, Ames/micronucleus/aberration tests
Assay: CCRIS mutagenicity studies
[1] = Test System: AMES SALMONELLA TYPHIMURIUM, Strain/Indicator: TA98, Metabolic Activation: NONE, Method: PREINCUBATION
[2] = Test System: AMES SALMONELLA TYPHIMURIUM, Strain/Indicator: TA98, Metabolic Activation: RAT, LIVER, S-9, PCB, Method: PREINCUBATION
[3] = Test System: AMES SALMONELLA TYPHIMURIUM, Strain/Indicator: TA100, Metabolic Activation: NONE, Method: PREINCUBATION
[4] = Test System: AMES SALMONELLA TYPHIMURIUM, Strain/Indicator: TA100, Metabolic Activation: RAT, LIVER, S-9, PCB, Method: PREINCUBATION
[5] = Test System: AMES SALMONELLA TYPHIMURIUM, Strain/Indicator: TA98, Metabolic Activation: NONE, Method: STANDARD PLATE
[6] = Test System: AMES SALMONELLA TYPHIMURIUM, Strain/Indicator: TA98, Metabolic Activation: RAT, LIVER, S-9, AROCLOR 1254, Method: STANDARD PLATE
[7] = Test System: AMES SALMONELLA TYPHIMURIUM, Strain/Indicator: TA98, Metabolic Activation: S-9, Method: STANDARD PLATE
[8] = Test System: AMES SALMONELLA TYPHIMURIUM, Strain/Indicator: TA100, Metabolic Activation: NONE, Method: STANDARD PLATE
[9] = Test System: AMES SALMONELLA TYPHIMURIUM, Strain/Indicator: TA100, Metabolic Activation: S-9, Method: STANDARD PLATE
[10] = Test System: AMES SALMONELLA TYPHIMURIUM, Strain/Indicator: TA100, Metabolic Activation: RAT, LIVER, S-9, AROCLOR 1254, Method: STANDARD PLATE
[11] = Test System: AMES SALMONELLA TYPHIMURIUM, Strain/Indicator: TA100, Metabolic Activation: RAT, LIVER, S-9, KANECLOR 500, Method: STANDARD PLATE

In the case of COc1nncc2cccnc12, the mutagenic call [1] is reported as “inactive; negative”, the mutagenic call [2] is reported as “inactive; negative” and the mutagenic call [3] is reported as “inactive; negative”. The mutagenic call [4] was “inactive; negative”.

For CC(=O)N(O)c1ccc([N+](=O)[O-])cc1, the mutagenic call (Test System: AMES SALMONELLA TYPHIMURIUM, Strain/Indicator: TA98(NR), Metabolic Activation: NONE, Method: STANDARD PLATE) was “inactive; negative”, the mutagenic call (Test System: AMES SALMONELLA TYPHIMURIUM, Strain/Indicator: TA98(NR), Metabolic Activation: RAT, LIVER, S-9, AROCLOR 1254, Method: STANDARD PLATE) was “inactive; negative” and the mutagenic call [5] was “active; positive”. For the same molecule, the mutagenic call [6] was “active; positive”, the mutagenic call (Test System: AMES SALMONELLA TYPHIMURIUM, Strain/Indicator: TA1538(NR), Metabolic Activation: NONE, Method: STANDARD PLATE) was “inactive; negative” and the mutagenic call (Test System: AMES SALMONELLA TYPHIMURIUM, Strain/Indicator: TA1538(NR), Metabolic Activation: RAT, LIVER, S-9, AROCLOR 1254, Method: STANDARD PLATE) was “inactive; negative”. For the same molecule, the mutagenic call (Test System: AMES SALMONELLA TYPHIMURIUM, Strain/Indicator: TA1538, Metabolic Activation: NONE, Method: STANDARD PLATE) was “active; positive” and the mutagenic call (Test System: AMES SALMONELLA TYPHIMURIUM, Strain/Indicator: TA1538, Metabolic Activation: RAT, LIVER, S-9, AROCLOR 1254, Method: STANDARD PLATE) was “active; positive”.

For CC[C@@H](CO)NCCN[C@@H](CC)CO, the mutagenic call [5] was “inactive; negative”, the mutagenic call [7] was “inactive; negative” and the mutagenic call [8] was “inactive; negative”. The mutagenic call [9] was “inactive; negative”.

For COc1cccc(C(=O)CBr)c1, the mutagenic call [1] was “inactive; negative”, the mutagenic call [2] was “inactive; negative” and the mutagenic call [3] was “inactive; negative”. The mutagenic call [4] was “inactive; negative” and the mutagenic call (Test System: E. COLI, Strain/Indicator: WP2 UVRA, Metabolic Activation: NONE, Method: PREINCUBATION) was “inactive; negative”.

With CC1(S(=O)(=O)O)CC(=O)c2ccccc2C1=O (stereo unspecified) (tested in a mixture with another compound) the mutagenic call (Test System: AMES SALMONELLA TYPHIMURIUM, Strain/Indicator: TA98, Metabolic Activation: NONE, Method: SPIRAL ASSAY) was “inactive; negative”, the mutagenic call [5] was “inactive; negative” and the mutagenic call (Test System: AMES SALMONELLA TYPHIMURIUM, Strain/Indicator: TA98, Metabolic Activation: RAT, LIVER, S-9, AROCLOR 1254, Method: SPIRAL ASSAY) was “inactive; negative”. The mutagenic call [6] was “active; positive”, the mutagenic call (Test System: AMES SALMONELLA TYPHIMURIUM, Strain/Indicator: TA100, Metabolic Activation: NONE, Method: SPIRAL ASSAY) was “inactive; negative” and the mutagenic call [8] was “inactive; negative”. The mutagenic call (Test System: AMES SALMONELLA TYPHIMURIUM, Strain/Indicator: TA100, Metabolic Activation: RAT, LIVER, S-9, AROCLOR 1254, Method: SPIRAL ASSAY) was “inactive; negative”, the mutagenic call [10] was “inactive; negative” and the mutagenic call (Test System: AMES SALMONELLA TYPHIMURIUM, Strain/Indicator: TA1535, Metabolic Activation: NONE, Method: SPIRAL ASSAY) was “inactive; negative”. For the same molecule, the mutagenic call (Test System: AMES SALMONELLA TYPHIMURIUM, Strain/Indicator: TA1535, Metabolic Activation: NONE, Method: STANDARD PLATE) was “inactive; negative”, the mutagenic call (Test System: AMES SALMONELLA TYPHIMURIUM, Strain/Indicator: TA1535, Metabolic Activation: RAT, LIVER, S-9, AROCLOR 1254, Method: SPIRAL ASSAY) was “inactive; negative” and the mutagenic call (Test System: AMES SALMONELLA TYPHIMURIUM, Strain/Indicator: TA1535, Metabolic Activation: RAT, LIVER, S-9, AROCLOR 1254, Method: STANDARD PLATE) was “inactive; negative”. For the same molecule, the mutagenic call (Test System: AMES SALMONELLA TYPHIMURIUM, Strain/Indicator: TA1537, Metabolic Activation: NONE, Method: SPIRAL ASSAY) was “inactive; negative”, the mutagenic call (Test System: AMES SALMONELLA TYPHIMURIUM, Strain/Indicator: TA1537, Metabolic Activation: NONE, Method: STANDARD PLATE) was “inactive; negative” and the mutagenic call (Test System: AMES SALMONELLA TYPHIMURIUM, Strain/Indicator: TA1537, Metabolic Activation: RAT, LIVER, S-9, AROCLOR 1254, Method: SPIRAL ASSAY) was “inactive; negative”. The mutagenic call (Test System: AMES SALMONELLA TYPHIMURIUM, Strain/Indicator: TA1537, Metabolic Activation: RAT, LIVER, S-9, AROCLOR 1254, Method: STANDARD PLATE) was “inactive; negative”.

CC(=O)N(O)c1ccc(Oc2ccccc2)cc1 was tested, and the mutagenic call (Test System: AMES SALMONELLA TYPHIMURIUM, Strain/Indicator: TA100, Metabolic Activation: GUINEA PIG, LIVER, S-9, KANECLOR 500, Method: STANDARD PLATE) was “active; positive”, the mutagenic call [8] was “inactive; negative” and the mutagenic call [11] was “active; positive”.

In the case of Nc1cc([N+](=O)[O-])c(-c2ccccc2)c([N+](=O)[O-])c1, the mutagenic call [1] is reported as “inactive; negative” and the mutagenic call (Test System: AMES SALMONELLA TYPHIMURIUM, Strain/Indicator: TA98, Metabolic Activation: RAT, LIVER, S-9, KANECHLOR 500, Method: PREINCUBATION) is reported as “active; positive”.

With CC(=O)Nc1ccc(Oc2c(Cl)cc(Cl)cc2Cl)cc1 the mutagenic call [6] was “inactive; negative”, the mutagenic call [7] was “inactive; negative” and the mutagenic call [8] was “inactive; negative”. The mutagenic call [10] was “active; positive”, the mutagenic call [11] was “active; positive” and the mutagenic call [9] was “active; positive”. The mutagenic call (Test System: AMES SALMONELLA TYPHIMURIUM, Strain/Indicator: YG1021, Metabolic Activation: RAT, LIVER, S-9, AROCLOR 1254, Method: STANDARD PLATE) was “inactive; negative”, the mutagenic call (Test System: AMES SALMONELLA TYPHIMURIUM, Strain/Indicator: YG1021, Metabolic Activation: S-9, Method: STANDARD PLATE) was “inactive; negative” and the mutagenic call (Test System: AMES SALMONELLA TYPHIMURIUM, Strain/Indicator: YG1024, Metabolic Activation: RAT, LIVER, S-9, AROCLOR 1254, Method: STANDARD PLATE) was “active; positive”. The mutagenic call (Test System: AMES SALMONELLA TYPHIMURIUM, Strain/Indicator: YG1024, Metabolic Activation: S-9, Method: STANDARD PLATE) was “active; positive”, the mutagenic call (Test System: AMES SALMONELLA TYPHIMURIUM, Strain/Indicator: YG1026, Metabolic Activation: RAT, LIVER, S-9, AROCLOR 1254, Method: STANDARD PLATE) was “active; positive” and the mutagenic call (Test System: AMES SALMONELLA TYPHIMURIUM, Strain/Indicator: YG1026, Metabolic Activation: S-9, Method: STANDARD PLATE) was “active; positive”. For the same molecule, the mutagenic call (Test System: AMES SALMONELLA TYPHIMURIUM, Strain/Indicator: YG1029, Metabolic Activation: RAT, LIVER, S-9, AROCLOR 1254, Method: STANDARD PLATE) was “active; positive” and the mutagenic call (Test System: AMES SALMONELLA TYPHIMURIUM, Strain/Indicator: YG1029, Metabolic Activation: S-9, Method: STANDARD PLATE) was “active; positive”.
